Reference: article PMC6987092, “Characterization and diversity of the complete set of GH family 3 enzymes from Rhodothermus marinus DSM 4253” (Scientific Reports, 2020)

Experiments:
Assay in all cases: pNP release at […] nm
Assay type in all cases: biochemical
Conditions in all cases: 20 mM citrate phosphate pH 5.6, 60 °C
RmXyl3A = biological target: T1, RmXyl3A (Rhodothermus marinus, UniProt D0MHL4)
T1 construct: gene Rmar_1080; locus tag is that of the type strain DSM 4252T homolog, gene cloned from DSM 4253
T1 sequence (D0MHL4 19-792): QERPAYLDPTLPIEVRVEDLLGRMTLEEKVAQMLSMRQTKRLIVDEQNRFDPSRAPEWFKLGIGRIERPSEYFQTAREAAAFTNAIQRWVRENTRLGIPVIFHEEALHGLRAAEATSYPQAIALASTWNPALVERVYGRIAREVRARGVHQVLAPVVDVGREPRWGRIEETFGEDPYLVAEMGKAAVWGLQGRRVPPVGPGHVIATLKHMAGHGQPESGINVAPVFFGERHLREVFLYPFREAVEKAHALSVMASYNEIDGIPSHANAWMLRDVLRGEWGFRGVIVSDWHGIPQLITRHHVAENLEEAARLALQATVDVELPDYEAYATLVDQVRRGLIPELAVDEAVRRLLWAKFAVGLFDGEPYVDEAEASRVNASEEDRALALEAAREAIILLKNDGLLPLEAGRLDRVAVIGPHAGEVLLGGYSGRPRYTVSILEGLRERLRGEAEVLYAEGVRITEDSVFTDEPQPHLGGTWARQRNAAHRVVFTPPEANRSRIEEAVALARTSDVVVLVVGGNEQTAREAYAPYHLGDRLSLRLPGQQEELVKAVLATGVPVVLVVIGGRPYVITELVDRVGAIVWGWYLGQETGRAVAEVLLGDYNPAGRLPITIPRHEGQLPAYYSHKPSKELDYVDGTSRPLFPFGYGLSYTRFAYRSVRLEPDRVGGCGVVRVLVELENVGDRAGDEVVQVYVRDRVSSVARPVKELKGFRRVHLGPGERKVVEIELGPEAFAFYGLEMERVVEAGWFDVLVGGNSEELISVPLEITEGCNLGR

RmBgl3B = biological target: T2, RmBgl3B (Rhodothermus marinus, UniProt D0MD38)
T2 construct: gene Rmar_2069; recombinant in E. coli BL21 C43 (pET-21b(+)), signal peptide removed, C-terminal His-tag; locus tag is that of the type strain DSM 4252T homolog, gene cloned from DSM 4253
T2 sequence (D0MD38 21-839): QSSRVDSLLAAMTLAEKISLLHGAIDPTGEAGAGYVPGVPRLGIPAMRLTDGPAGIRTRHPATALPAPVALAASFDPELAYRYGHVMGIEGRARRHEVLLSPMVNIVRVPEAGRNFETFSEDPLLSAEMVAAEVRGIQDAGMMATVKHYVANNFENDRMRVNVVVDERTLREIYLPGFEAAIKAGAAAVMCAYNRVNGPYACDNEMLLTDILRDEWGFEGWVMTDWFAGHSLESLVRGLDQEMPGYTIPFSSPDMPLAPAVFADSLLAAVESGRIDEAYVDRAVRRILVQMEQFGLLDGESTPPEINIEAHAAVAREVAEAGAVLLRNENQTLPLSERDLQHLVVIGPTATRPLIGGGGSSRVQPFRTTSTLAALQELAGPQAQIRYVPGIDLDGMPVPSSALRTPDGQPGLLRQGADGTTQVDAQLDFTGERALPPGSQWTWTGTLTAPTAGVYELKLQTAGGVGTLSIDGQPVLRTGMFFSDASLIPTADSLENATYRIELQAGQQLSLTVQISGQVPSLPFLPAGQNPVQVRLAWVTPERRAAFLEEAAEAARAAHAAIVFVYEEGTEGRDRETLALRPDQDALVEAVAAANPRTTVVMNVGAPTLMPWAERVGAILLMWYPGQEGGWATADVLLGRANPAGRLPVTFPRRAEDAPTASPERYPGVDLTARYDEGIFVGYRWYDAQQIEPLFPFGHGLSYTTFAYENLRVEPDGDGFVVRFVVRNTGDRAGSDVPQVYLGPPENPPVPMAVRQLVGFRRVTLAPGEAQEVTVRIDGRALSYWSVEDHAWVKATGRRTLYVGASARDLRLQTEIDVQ

RmXyl3B = biological target: T3, RmXyl3B (Rhodothermus marinus, UniProt D0MHL5)
T3 construct: gene Rmar_1081; locus tag is that of the type strain DSM 4252T homolog, gene cloned from DSM 4253
T3 sequence (D0MHL5 entry or part of it): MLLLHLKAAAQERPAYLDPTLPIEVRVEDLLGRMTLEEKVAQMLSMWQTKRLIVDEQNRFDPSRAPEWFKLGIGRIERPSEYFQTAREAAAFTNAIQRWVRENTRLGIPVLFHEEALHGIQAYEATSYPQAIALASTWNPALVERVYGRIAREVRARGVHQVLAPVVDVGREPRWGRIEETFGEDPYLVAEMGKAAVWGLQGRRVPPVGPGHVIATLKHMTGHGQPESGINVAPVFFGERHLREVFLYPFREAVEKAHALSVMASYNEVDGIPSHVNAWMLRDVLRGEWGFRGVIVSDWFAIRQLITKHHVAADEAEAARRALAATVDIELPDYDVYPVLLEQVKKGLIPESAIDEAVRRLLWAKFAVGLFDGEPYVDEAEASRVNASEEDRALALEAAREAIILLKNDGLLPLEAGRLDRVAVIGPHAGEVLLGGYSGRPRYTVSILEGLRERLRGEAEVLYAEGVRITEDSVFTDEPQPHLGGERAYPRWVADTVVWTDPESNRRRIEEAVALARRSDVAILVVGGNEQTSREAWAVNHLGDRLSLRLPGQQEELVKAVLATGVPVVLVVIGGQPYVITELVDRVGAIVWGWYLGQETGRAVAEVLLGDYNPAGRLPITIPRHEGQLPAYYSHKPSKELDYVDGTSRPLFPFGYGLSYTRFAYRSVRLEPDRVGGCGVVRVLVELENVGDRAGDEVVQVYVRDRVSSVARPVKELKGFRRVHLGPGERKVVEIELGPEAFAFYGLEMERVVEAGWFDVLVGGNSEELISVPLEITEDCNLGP

pNP-α-L-Ara showed a Km (RmXyl3A) of 8800 ± 1000 µM, a Km (RmBgl3B) of 1900 ± 100 µM and a Km (RmXyl3B) of 2000 ± 200 µM.
